Reference: patent US20240174618A1, “SUBSTITUTED (2-HETEROARYLOXYPHENYL)SULFONATES, SALTS THEREOF AND THEIR USE AS HERBICIDAL AGENTS” (Bayer Aktiengesellschaft, priority 2021, published 2024)

Assays:
Format in all cases: in vivo
[1] = test system: Abutilon theophrasti (ABUTH); assay: A. Herbicidal pre-emergence efficacy, ABUTH; conditions: scored visually after about 3 weeks vs untreated controls
Excerpt: (§1) Seeds of mono- and dicotyledonous weed plants were placed in plastic pots in sandy loam soil (doubly sown with one species each of mono- or dicotyledonous weed plants per pot) and covered with soil. The compounds of the invention, formulated in the form of wettable powders (WP) or as emulsion concentrates (EC), were then applied onto the surface of the covering soil as aqueous suspension or emulsion with addition of 0.5% additive at a water application rate of 600 liters per hectare (converted). After the treatment, the pots were placed in a greenhouse and kept under good growth conditions for the test plants. After about 3 weeks, the efficacy of the preparations was scored visually in comparison with untreated controls as percentages.
(§2) For example, • 100% efficacy=plants have died, • 0% efficacy=like untreated control plants.
(§3) Tables A1a to A12c below show the effects of selected compounds of the general formula (I) according to table 1 on various harmful plants at an application rate corresponding to 1280 g/ha or less, which were obtained by the experimental procedure mentioned above.

[2] = test system: Digitaria sanguinalis (DIGSA); assay: A. Herbicidal pre-emergence efficacy, DIGSA; conditions: scored visually after about 3 weeks vs untreated controls
Excerpt: as §1, §2, §3

[3] = test system: Echinochloa crus-galli (ECHCG); assay: A. Herbicidal pre-emergence efficacy, ECHCG; conditions: scored visually after about 3 weeks vs untreated controls
Excerpt: as §1, §2, §3

Kochia scoparia (KCHSC) [4] = assay: A. Herbicidal pre-emergence efficacy, KCHSC
Excerpt: as §1, §2, §3

Lolium rigidum (LOLRI) = assay: A. Herbicidal pre-emergence efficacy, LOLRI; conditions: dosage 1280 g/ha
Excerpt: as §1, §2, §3

[5] = test system: Matricaria inodora (MATIN); assay: A. Herbicidal pre-emergence efficacy, MATIN; conditions: pre-emergence, dosage 1280 g/ha
Excerpt: as §1, §2, §3

Poa annua (POAAN) [6] = assay: A. Herbicidal pre-emergence efficacy, POAAN; conditions: dosage 1280 g/ha
Excerpt: as §1, §2, §3

Setaria viridis (SETVI) = assay: A. Herbicidal pre-emergence efficacy, SETVI
Excerpt: as §1, §2, §3

Stellaria media (STEME) [7] = assay: A. Herbicidal pre-emergence efficacy, STEME
Excerpt: as §1, §2, §3

[8] = test system: Amaranthus retroflexus (AMARE); assay: A. Herbicidal pre-emergence efficacy, AMARE
Excerpt: as §1, §2, §3

[9] = test system: Abutilon theophrasti (ABUTH); assay: B. Herbicidal post-emergence efficacy, ABUTH; conditions: rated visually after about 3 weeks
Protocol: (§4) Seeds of mono- and dicotyledonous weed plants were placed in plastic pots in sandy loam soil (doubly sown with in each case one species of mono- or dicotyledonous weed plants per pot), covered with soil and cultivated in a greenhouse under controlled growth conditions. 2 to 3 weeks after sowing, the test plants were treated at the one-leaf stage. The compounds of the invention, formulated in the form of wettable powders (WP) or as emulsion concentrates (EC), were applied onto the green parts of the plants as aqueous suspension or emulsion with addition of 0.5% additive at a water application rate of 600 liters per hectare (converted). After the test plants had been kept in the greenhouse under optimum growth conditions for about 3 weeks, the activity of the preparations was rated visually in comparison to untreated controls.
(§5) For example, • 100% efficacy=plants have died, • 0% efficacy=like untreated control plants
(§6) Tables B1a to B12c below show the effects of selected inventive compounds of the general formula (I) according to table 1 on various harmful plants at an application rate corresponding to 1280 g/ha or less, which were obtained by the experimental procedure mentioned above.

Kochia scoparia (KCHSC) [10] = assay: B. Herbicidal post-emergence efficacy, KCHSC; conditions: for Post-emergence efficacy against KCHSC in %: rated visually after about 3 weeks; for Post-emergence efficacy against KCHSC: 1280 g/ha
Protocol: as §4, §5, §6

Poa annua (POAAN) [11] = assay: B. Herbicidal post-emergence efficacy, POAAN; conditions: 1280 g/ha
Protocol: as §4, §5, §6

Stellaria media (STEME) [12] = assay: B. Herbicidal post-emergence efficacy, STEME
Protocol: as §4, §5, §6

Veronica persica (VERPE) [13] = assay: B. Herbicidal post-emergence efficacy, VERPE
Protocol: as §4, §5, §6

[14] = test system: Amaranthus retroflexus (AMARE); assay: B. Herbicidal post-emergence efficacy, AMARE
Protocol: as §4, §5, §6

Veronica persica (VERPE) [15] = assay: A. Herbicidal pre-emergence efficacy, VERPE
Excerpt: as §1, §2, §3

[16] = test system: Echinochloa crus-galli (ECHCG); assay: B. Herbicidal post-emergence efficacy, ECHCG; conditions: 1280 g/ha, rated visually after about 3 weeks
Protocol: as §4, §5, §6

[17] = pre-emergence, dosage 1280 g/ha

Structure (SMILES) | Pre-emergence efficacy against ABUTH ([1]; 1280 g/ha) [%] | Pre-emergence efficacy against DIGSA ([2]; 320 g/ha) [%] | Pre-emergence efficacy against DIGSA ([2]; 1280 g/ha) [%] | Pre-emergence efficacy against ECHCG ([3]; 1280 g/ha) [%] | Pre-emergence efficacy against KCHSC (Kochia scoparia (KCHSC) [4]; [17]) [%] | Pre-emergence efficacy against LOLRI (Lolium rigidum (LOLRI)) [%] | Pre-emergence efficacy against POAAN (Poa annua (POAAN) [6]) [%] | Pre-emergence efficacy against SETVI (Setaria viridis (SETVI); dosage 320 g/ha) [%] | Pre-emergence efficacy against SETVI (Setaria viridis (SETVI); dosage 1280 g/ha) [%] | Pre-emergence efficacy against STEME (Stellaria media (STEME) [7]; dosage 1280 g/ha) [%] | Pre-emergence efficacy against AMARE in % ([8]; 1280 g/ha) [%] | Post-emergence efficacy against ABUTH in % ([9]; 1280 g/ha) [%] | Post-emergence efficacy against KCHSC in % (Kochia scoparia (KCHSC) [10]; 320 g/ha) [%] | Post-emergence efficacy against KCHSC (Kochia scoparia (KCHSC) [10]) [%] | Post-emergence efficacy against POAAN (Poa annua (POAAN) [11]) [%] | Post-emergence efficacy against STEME (Stellaria media (STEME) [12]; 1280 g/ha) [%] | Post-emergence efficacy against VERPE (Veronica persica (VERPE) [13]; 320 g/ha) [%] | Post-emergence efficacy against VERPE (Veronica persica (VERPE) [13]; 1280 g/ha) [%] | Post-emergence efficacy against AMARE ([14]; 320 g/ha) [%] | Post-emergence efficacy against AMARE ([14]; 1280 g/ha) [%] | other results
COCCS(=O)(=O)Oc1ccccc1Oc1ncc(Cl)cn1 [Example I-20] | 100 | 100 | 100 | 100 | 100 | 90 | 90 | 90 | 100 | 100 | 90 | 90 | 90 | 100 | 90 | 100 | 90 | 100 | 90 | 100 | Pre-emergence efficacy against ABUTH ([1]; 80 g/ha): 100%; Pre-emergence efficacy against ABUTH ([1]; 320 g/ha): 100%; Pre-emergence efficacy against KCHSC (Kochia scoparia (KCHSC) [4]; 80 g/ha, scored visually after about 3 weeks vs untreated controls): 90%; Pre-emergence efficacy against KCHSC (Kochia scoparia (KCHSC) [4]; pre-emergence, dosage 320 g/ha): 90%; Pre-emergence efficacy against MATIN [5]: 100%; Pre-emergence efficacy against STEME (Stellaria media (STEME) [7]; dosage 320 g/ha): 100%
CCC(C)S(=O)(=O)Oc1ccccc1Oc1ncc(Cl)cn1 (stereo not shown) [Example I-22] | 100 | 100 | 100 | 90 | 100 | 90 | 90 | 90 | 100 | 100 | 100 | 100 | 90 | 100 | 90 | 90 | 100 | 100 | 90 | 100 | Pre-emergence efficacy against ABUTH ([1]; 320 g/ha): 100%; Pre-emergence efficacy against ECHCG ([3]; 320 g/ha): 90%; Pre-emergence efficacy against KCHSC (Kochia scoparia (KCHSC) [4]; pre-emergence, dosage 320 g/ha): 90%; Pre-emergence efficacy against STEME (Stellaria media (STEME) [7]; dosage 80 g/ha): 100%; Pre-emergence efficacy against STEME (Stellaria media (STEME) [7]; dosage 320 g/ha): 100%; Pre-emergence efficacy against VERPE in % (Veronica persica (VERPE) [15]; 1280 g/ha): 90%; Pre-emergence efficacy against AMARE in % ([8]; 80 g/ha): 90%; Pre-emergence efficacy against AMARE in % ([8]; 320 g/ha): 90%; Post-emergence efficacy against ABUTH in % ([9]; 320 g/ha): 90%; Post-emergence efficacy against KCHSC in % (Kochia scoparia (KCHSC) [10]; 80 g/ha): 90%; Post-emergence efficacy against STEME (Stellaria media (STEME) [12]; 80 g/ha): 90%; Post-emergence efficacy against STEME (Stellaria media (STEME) [12]; 320 g/ha): 90%; Post-emergence efficacy against VERPE (Veronica persica (VERPE) [13]; 80 g/ha): 90%
Cc1cccc(Oc2ncc(Cl)cn2)c1OS(=O)(=O)CCCC(F)(F)C(F)(F)F [Example I-69] | 90 | – | 90 | 90 | 90 | – | – | – | 100 | 90 | 100 | 100 | 100 | 100 | 90 | 100 | 100 | 100 | 100 | 100 | Pre-emergence efficacy against VERPE in % (Veronica persica (VERPE) [15]; 1280 g/ha): 100%; Pre-emergence efficacy against AMARE in % ([8]; 80 g/ha): 90%; Pre-emergence efficacy against AMARE in % ([8]; 320 g/ha): 100%; Post-emergence efficacy against ABUTH in % ([9]; 80 g/ha): 90%; Post-emergence efficacy against ABUTH in % ([9]; 320 g/ha): 90%; Post-emergence efficacy against ECHCG in % [16]: 100%; Post-emergence efficacy against KCHSC in % (Kochia scoparia (KCHSC) [10]; 80 g/ha): 90%; Post-emergence efficacy against STEME (Stellaria media (STEME) [12]; 320 g/ha): 90%; Post-emergence efficacy against VERPE (Veronica persica (VERPE) [13]; 80 g/ha): 100%; Post-emergence efficacy against AMARE ([14]; 80 g/ha): 100%
O=S(=O)(CCC(F)=C(F)F)Oc1c(Br)cccc1Oc1ncc(Cl)cn1 [Example I-72] | 90 | 90 | 100 | – | 90 | 90 | 100 | 90 | 100 | 100 | 100 | 100 | 100 | 100 | 90 | 100 | 100 | 100 | 100 | 100 | Pre-emergence efficacy against STEME (Stellaria media (STEME) [7]; dosage 320 g/ha): 90%; Pre-emergence efficacy against VERPE in % (Veronica persica (VERPE) [15]; 320 g/ha): 90%; Pre-emergence efficacy against VERPE in % (Veronica persica (VERPE) [15]; 1280 g/ha): 90%; Pre-emergence efficacy against AMARE in % ([8]; 320 g/ha): 90%; Post-emergence efficacy against ABUTH in % ([9]; 320 g/ha): 90%; Post-emergence efficacy against ECHCG in % [16]: 100%; Post-emergence efficacy against KCHSC in % (Kochia scoparia (KCHSC) [10]; 80 g/ha): 90%; Post-emergence efficacy against STEME (Stellaria media (STEME) [12]; 80 g/ha): 90%; Post-emergence efficacy against STEME (Stellaria media (STEME) [12]; 320 g/ha): 100%; Post-emergence efficacy against VERPE (Veronica persica (VERPE) [13]; 80 g/ha): 100%; Post-emergence efficacy against AMARE ([14]; 80 g/ha): 100%
